Reference: the NIST ThermoML archive (doi:10.1021/je8002282)
Numbers after ± are expanded uncertainties.

Tests used:
[1] = Liquid
[2] = xn = mol fraction of the nth substance listed; conditions: Liquid

COC [dimethyl ether]
[1]
Conditions | vapor or sublimation pressure [kPa]
293 K | 520 ± 40
313 K | 900 ± 70
353 K | 2240 ± 170
373 K | 3260 ± 240

[C-]#[O+] [carbon monoxide] + COC(=O)OC
[2], Pycnometric method
Conditions | mass density [kg/m3]
293 K, x1 = 0.0547 | 1078 ± 45
293 K, x1 = 0.0679 | 1036.5 ± 43
293 K, x1 = 0.0838 | 992.5 ± 40
293 K, x1 = 0.1138 | 963.5 ± 39
293 K, x1 = 0.1413 | 919.7 ± 38
293 K, x1 = 0.1606 | 865.9 ± 36
313 K, x1 = 0.0534 | 966.4 ± 42
313 K, x1 = 0.0646 | 948 ± 38
313 K, x1 = 0.0868 | 910.2 ± 37
313 K, x1 = 0.1087 | 885.7 ± 36
313 K, x1 = 0.1199 | 834.8 ± 35
313 K, x1 = 0.1511 | 786.6 ± 32
353 K, x1 = 0.0485 | 868.7 ± 35
353 K, x1 = 0.0677 | 853 ± 34
353 K, x1 = 0.0752 | 847.4 ± 36
353 K, x1 = 0.0873 | 802.4 ± 36
353 K, x1 = 0.0936 | 773.3 ± 33
353 K, x1 = 0.1204 | 720.7 ± 30
373 K, x1 = 0.0418 | 841.2 ± 34
373 K, x1 = 0.0545 | 829.8 ± 34
373 K, x1 = 0.0723 | 801.3 ± 33
373 K, x1 = 0.084 | 786.7 ± 33
373 K, x1 = 0.0943 | 754.3 ± 32
373 K, x1 = 0.1095 | 710.1 ± 31

O=O [oxygen] + COC(=O)OC
[2], determining using the ratio of the masses to the volume of the sample.
Conditions | mass density [kg/m3]
293.15 K, x1 = 0.0612 | 1087.6 ± 5.7
293.15 K, x1 = 0.0791 | 1062.4 ± 6.3
293.15 K, x1 = 0.097 | 1032 ± 6.7
293.15 K, x1 = 0.1266 | 984.7 ± 6.5
293.15 K, x1 = 0.1605 | 931.3 ± 8.4
293.15 K, x1 = 0.1977 | 838 ± 10
313 K, x1 = 0.0506 | 1056.6 ± 14
313 K, x1 = 0.061 | 1014.8 ± 16
313 K, x1 = 0.0748 | 960.2 ± 14
313 K, x1 = 0.099 | 885.7 ± 9.8
313 K, x1 = 0.1307 | 824.8 ± 6.4
313 K, x1 = 0.175 | 766.6 ± 5.5
353 K, x1 = 0.0412 | 988.5 ± 4.8
353 K, x1 = 0.0523 | 947.8 ± 21
353 K, x1 = 0.0614 | 882.2 ± 21
353 K, x1 = 0.0733 | 826.7 ± 29
353 K, x1 = 0.082 | 728.8 ± 19
353 K, x1 = 0.1018 | 685.3 ± 6.1
373 K, x1 = 0.0233 | 935.5 ± 12
373 K, x1 = 0.0347 | 900.2 ± 12
373 K, x1 = 0.0539 | 841.3 ± 11
373 K, x1 = 0.071 | 798.9 ± 16
373 K, x1 = 0.0858 | 712.5 ± 24
373 K, x1 = 0.0953 | 652.5 ± 25

COC(=O)OC [dimethyl carbonate]
[1]
Conditions | vapor or sublimation pressure [kPa]
293 K | 10
313 K | 20 ± 20
353 K | 70 ± 20
373 K | 140 ± 20
